Reference: patent US20100003217A1, “Compounds and Pharmaceutical Compositions for the Treatment of Viral Infections” (priority 2008, published 2010)

Legend:
[1] = test system: HCV genotype 1b replicon (Zluc cells); experiment: HCV luciferase replicon assay; assay type: cell-based, hepatitis C virus; conditions: Hepatitis C virus, 72 h, 3 days
Protocol: The HCV luciferase replicon assay measures the ability of a test compound to inhibit HCV replication in cell culture after 3 days of treatment in a human hepatoma cell line (Huh-7) bearing the HCV genotype 1b replicon and a luciferase-neomycin phosphotransferase fusion gene. The inhibition of HCV replication was measured by quantification of luciferase protein expression. The HCV luciferase replicon was constructed by fusing a luciferase gene to the amino terminus of the neomycin phosphotransferase gene of the ZS11 HCV replicon. The ZS11 HCV replicon (Zhu Q, Guo J-T, and Seeger C, 2003) is derived from the SP1 replicon, but contains three cell culture-adapted mutations: E1202G (NS3), S22041 (NS5A), and D2254E (NS5A). These mutations allow for efficient in vitro replication. The luciferase reporter gene was amplified from the pGL4.13[luc2/SV40] vector (Promega Corp.). The replicon resulting from the luciferase-neomycin fusion (ZS11-luc) was stably-transfected into Huh-7 cells, yielding the Zluc cell line.
The luciferase replicon assay is summarized as follows: Solid white 96-well tissue culture plates (BD Falcon) were seeded with Zluc cells. Antiviral compound solutions were made up freshly in medium as 2×-concentrated stocks. Eight additional 3-fold drug dilutions were prepared from these stocks in medium for a total of 9 dilutions. At least four hours after Zluc cells were seeded, drug treatment was initiated by adding one volume of each 2×-concentrated drug dilution to one volume of cells/medium in the tissue culture plates. Cells were then incubated for 3 days at 37° C./5% CO2.
The media/compound was then removed from the plates and the ONE-glo Luciferase assay reagent (Promega) was added to each well. The assay plates were shaken for 3 minutes at room temperature and luciferase activity for each well was measured with a 1 sec read time on the Victor^3V multilabel counter using a 700 nm cut-off filter (Perkin Elmer). EC50 values were calculated from dose response curves from the resulting best-fit equations determined by Microsoft Excel and XLfit 4.1 software.

CYP2D6 = CYP2D6 (Homo sapiens, UniProt P10635); experiment: Incubation with human recombinant CYP450 supersomes, 2D6; assay type: in vitro ADME; conditions: CYP450 2D6 supersomes, 60 min, 10 μM, average of two experiments
CYP2D6, sequence (P10635 whole entry): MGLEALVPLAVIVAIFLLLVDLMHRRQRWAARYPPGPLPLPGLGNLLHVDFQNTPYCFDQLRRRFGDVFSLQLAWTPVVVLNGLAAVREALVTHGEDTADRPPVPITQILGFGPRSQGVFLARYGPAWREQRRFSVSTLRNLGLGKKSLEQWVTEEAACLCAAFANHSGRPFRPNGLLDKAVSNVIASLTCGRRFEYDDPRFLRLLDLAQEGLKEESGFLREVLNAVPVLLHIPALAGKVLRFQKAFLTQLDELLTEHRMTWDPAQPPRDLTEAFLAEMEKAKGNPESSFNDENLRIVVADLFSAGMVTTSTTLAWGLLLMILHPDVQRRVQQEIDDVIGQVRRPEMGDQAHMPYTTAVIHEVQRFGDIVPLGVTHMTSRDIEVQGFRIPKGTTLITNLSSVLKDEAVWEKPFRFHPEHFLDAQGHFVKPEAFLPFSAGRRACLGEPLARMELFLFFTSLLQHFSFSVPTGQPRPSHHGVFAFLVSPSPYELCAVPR
Protocol: Supersomes—Incubations were conducted in a final volume of 0.1 mL reaction buffer (50-100 mM potassium phosphate, pH 7.4 or 100 mM Tris-HCL, pH 7.4) according to protocol provided with each CYP450 supersome. Each reaction contained […] of CYP450 supersome, 1.3 mM NADP^+, 3.3 mM glucose-6-phosphate, 0.4 U/mL glucose-6-phosphate dehydrogenase, 3.3 mM MgCl2 and 10 μM Compound 1. Following incubation for 60 min at 37° C., 100 μL of stop solution (acetonitrile:methanol; 1:1) was added and samples centrifuged for 10 min at 10,000×g. The supernatant was then dried and reconstituted in 10 mM potassium phosphate, pH 5, further transferred to an HPLC glass vial and analyzed by HPLC-UV (described above).

[2] = Rat plasma pharmacokinetics of total radioactivity after [^14C]-Compound 1; assay type: in vivo, male Sprague-Dawley rats
Protocol: A preliminary rat metabolism study was conducted with radiolabeled Compound 1. The compound was labeled with [^14C] in the C-8 position of the guanine moiety. The objectives of the study were to determine, 1) the plasma pharmacokinetics of total radioactivity, 2) the time-course of total radioactivity and the amount of 2′-C-methyl guanosine-5′-TP in liver, 3) the major route of excretion, and 4) the metabolic profile in excreta, liver, and plasma.
Isotopically diluted [^14C]-Compound 1 was administered intravenously to male Sprague-Dawley rats at 50 mg/kg or by oral gavage at 100 mg/kg.
The plasma concentration-time data for total radioactivity was analyzed using Microsoft® Office Excel 2003 to obtain the area under the concentration-time curve (AUC). AUC0-24 (area under the concentration-time curve from 0 to 24 h after dosing) was calculated using the linear trapezoidal rule and nominal sampling times. For the IV dose group, concentration at time zero was extrapolated from the concentration data for the first two time points. The maximum (peak) plasma concentrations (Cmax) and the time to peak concentrations (tmax) were the observed values. Descriptive statistics were prepared in Excel.
Radioanalyses of plasma samples were conducted. The plasma concentration data for total radioactivity expressed as μg equivalents/mL are summarized below: […]

[3] = Radiochemical purity of the test article in dose formulations before and after dosing; assay type: physicochemical; conditions: PEG 200 with 5% DMSO
Protocol: Two dose formulations (50 mg/mL for the IV dose Groups 1A-C and 100 mg/mL for the PO dose Groups 2A-C) were prepared in PEG 200 containing 5% DMSO. Subsamples of the dose formulations were removed before and after the dose administration. An aliquot (10 μL) of each subsample was diluted by adding methanol (490 μL) and 20 mM ammonium formate in water (1500 μL). The diluted dose formulations were analyzed for determination of radiochemical purity by HPLC method 1.
Two dose formulations (50 mg/kg for the IV dose Groups 1A-C and 100 mg/kg for the PO dose Groups 2A-C) were prepared by the following procedure. Both formulations were prepared in PEG 200 containing 5% DMSO. The required amount of radioactive material was weighed and ground to a fine powder with a spatula. 30% of the final volume of PEG 200 and the weighed test article was added to a formulation vial while stirring under magnetic agitation to obtain a uniform formulation. The final volume was made up with PEG 200. The formulation was sonicated at room temperature for 15 minutes or longer to obtain homogenous suspension. The cycles of sonication/agitation were continued until the formulation was homogeneous. Triplicate aliquots were removed for determination of homogeneity (CV). The radioactivity concentration of the formulation was determined and specific activity was calculated.
The dose aliquots were analyzed by HPLC method 1 after diluting 10 μL of each formulation with 490 μL of methanol and 1.5 mL of the aqueous mobile phase.

## CC(C)(CO)C(=O)SCCOP(=O)(NCc1ccccc1)OC[C@H]1O[C@@H](n2cnc3c(=O)[nH]c(N)nc32)[C@](C)(O)[C@@H]1O (mixture of isomers) [Compound 1, 3-hydroxy-2,2-dimethyl-thiopropionic acid S-(2-{[(2R,3R,4R,5R)-5-(2-amino-6-oxo-1,6-dihydro-purin-9-yl)-3,4-dihydroxy-4-methyl-tetrahydro-furan-2-ylmethoxy]-benzylamino-phosphoryloxy}-ethyl) ester]
[1]
  EC50: 68 ± 0.4 nM
CYP2D6
  % Residual Compound 1: 102%
[2]; IV 50 mg/kg [^14C]-Compound 1
  AUC0-24 of plasma total radioactivity: 36.0 hr.μg equivalent/mL
[2]; PO 100 mg/kg [^14C]-Compound 1
  AUC0-24 of plasma total radioactivity: 15.4 hr.μg equivalent/mL
[3]; IV formulation, Groups 1A-C, Postdose
  Radiochemical Purity of the test article in dose formulation (total of two isomers): 99.1%
[3]; IV formulation, Groups 1A-C, Predose
  Radiochemical Purity of the test article in dose formulation (total of two isomers): 99.0%
[3]; PO formulation, Groups 2A-C, Postdose
  Radiochemical Purity of the test article in dose formulation (total of two isomers): 98.9%
[3]; PO formulation, Groups 2A-C, Predose
  Radiochemical Purity of the test article in dose formulation (total of two isomers): 98.6%
